Assay results taken from article PMC6757289, “Design and Characterization of SGK3-PROTAC1, an Isoform Specific SGK3 Kinase PROTAC Degrader” (ACS Chemical Biology, 2019).
Like-named read-outs stand apart in the source and are kept apart here.

What was measured:
Assay in all cases: kinase profiling panel
Format in all cases: biochemical
Conditions in all cases: read-out: % Activity Remaining
EPH-B2 = target: T1, EPH-B2 (Homo sapiens, UniProt P29323)
T1 sequence (P29323 19-1055): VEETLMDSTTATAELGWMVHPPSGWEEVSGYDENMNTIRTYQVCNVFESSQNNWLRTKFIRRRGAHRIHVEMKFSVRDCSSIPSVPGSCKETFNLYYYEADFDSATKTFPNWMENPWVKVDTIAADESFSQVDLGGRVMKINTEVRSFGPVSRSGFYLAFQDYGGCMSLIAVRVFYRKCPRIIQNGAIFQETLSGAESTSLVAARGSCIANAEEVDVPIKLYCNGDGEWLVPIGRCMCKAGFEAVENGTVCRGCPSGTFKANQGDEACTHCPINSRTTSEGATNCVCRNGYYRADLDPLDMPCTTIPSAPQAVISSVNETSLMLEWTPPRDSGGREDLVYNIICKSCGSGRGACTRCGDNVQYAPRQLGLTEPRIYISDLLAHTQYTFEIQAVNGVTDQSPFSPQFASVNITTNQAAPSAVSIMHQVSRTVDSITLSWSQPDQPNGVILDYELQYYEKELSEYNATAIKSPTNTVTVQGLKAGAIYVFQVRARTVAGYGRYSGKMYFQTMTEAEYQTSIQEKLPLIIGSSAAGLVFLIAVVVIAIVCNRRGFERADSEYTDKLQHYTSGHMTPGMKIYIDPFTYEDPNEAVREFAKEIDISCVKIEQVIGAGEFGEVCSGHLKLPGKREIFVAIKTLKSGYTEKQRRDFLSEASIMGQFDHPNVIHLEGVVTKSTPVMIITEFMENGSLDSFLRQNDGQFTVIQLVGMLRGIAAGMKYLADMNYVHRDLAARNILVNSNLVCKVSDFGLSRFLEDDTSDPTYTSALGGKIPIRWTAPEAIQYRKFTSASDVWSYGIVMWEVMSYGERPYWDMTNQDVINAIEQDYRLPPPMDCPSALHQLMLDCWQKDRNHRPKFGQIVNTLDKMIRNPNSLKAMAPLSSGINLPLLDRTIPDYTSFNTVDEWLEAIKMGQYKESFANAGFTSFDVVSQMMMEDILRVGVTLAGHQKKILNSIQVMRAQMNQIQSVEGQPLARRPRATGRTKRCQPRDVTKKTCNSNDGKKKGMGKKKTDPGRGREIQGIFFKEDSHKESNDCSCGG
Excerpt: (§1) Protein kinase profiling against a Dundee panel of 140 protein kinases was undertaken at the International Centre for Protein Kinase Profiling. The result for each kinase was presented as a mean kinase activity of the reaction taken in triplicate relative to a control sample treated with DMSO. Assay conditions and abbreviations are available at http://www.kinase-screen.mrc.ac.uk.

HER4 = HER4 (Homo sapiens, UniProt Q15303)
HER4, sequence (Q15303 26-1308): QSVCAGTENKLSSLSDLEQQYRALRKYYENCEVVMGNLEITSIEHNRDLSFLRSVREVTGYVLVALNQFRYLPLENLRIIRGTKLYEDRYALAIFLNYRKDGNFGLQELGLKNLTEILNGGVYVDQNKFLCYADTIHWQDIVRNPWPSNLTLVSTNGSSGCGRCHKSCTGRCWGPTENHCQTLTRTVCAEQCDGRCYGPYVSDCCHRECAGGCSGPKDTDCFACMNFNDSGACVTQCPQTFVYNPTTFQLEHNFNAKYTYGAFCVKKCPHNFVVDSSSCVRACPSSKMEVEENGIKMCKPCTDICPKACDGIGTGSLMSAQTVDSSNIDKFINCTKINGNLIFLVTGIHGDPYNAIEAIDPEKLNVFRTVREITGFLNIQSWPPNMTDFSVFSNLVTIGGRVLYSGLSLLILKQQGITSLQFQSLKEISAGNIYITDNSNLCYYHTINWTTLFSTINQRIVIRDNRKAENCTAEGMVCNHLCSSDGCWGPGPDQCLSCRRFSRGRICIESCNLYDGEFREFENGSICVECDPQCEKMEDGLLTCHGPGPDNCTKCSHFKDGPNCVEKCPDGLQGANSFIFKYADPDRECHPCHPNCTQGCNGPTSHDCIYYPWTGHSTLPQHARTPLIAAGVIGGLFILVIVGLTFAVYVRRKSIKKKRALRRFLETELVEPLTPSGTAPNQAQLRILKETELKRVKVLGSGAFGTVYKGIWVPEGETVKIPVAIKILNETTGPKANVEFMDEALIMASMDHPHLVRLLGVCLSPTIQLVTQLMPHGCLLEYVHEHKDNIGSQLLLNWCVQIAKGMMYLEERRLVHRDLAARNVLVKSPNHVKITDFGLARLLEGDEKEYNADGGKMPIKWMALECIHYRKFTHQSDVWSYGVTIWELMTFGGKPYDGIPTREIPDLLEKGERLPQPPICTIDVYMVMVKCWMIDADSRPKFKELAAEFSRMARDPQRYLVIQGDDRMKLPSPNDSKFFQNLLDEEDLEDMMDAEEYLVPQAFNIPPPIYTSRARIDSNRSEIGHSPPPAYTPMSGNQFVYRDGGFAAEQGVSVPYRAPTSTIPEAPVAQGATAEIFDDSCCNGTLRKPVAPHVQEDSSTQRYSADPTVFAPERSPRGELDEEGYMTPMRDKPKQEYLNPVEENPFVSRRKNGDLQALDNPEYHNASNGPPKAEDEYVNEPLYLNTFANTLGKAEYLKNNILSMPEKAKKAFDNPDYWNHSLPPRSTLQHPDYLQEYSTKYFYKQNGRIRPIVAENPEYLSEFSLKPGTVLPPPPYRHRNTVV
Excerpt: as §1

JNK2 = JNK2 (Homo sapiens, UniProt P45984)
JNK2, sequence (P45984 whole entry): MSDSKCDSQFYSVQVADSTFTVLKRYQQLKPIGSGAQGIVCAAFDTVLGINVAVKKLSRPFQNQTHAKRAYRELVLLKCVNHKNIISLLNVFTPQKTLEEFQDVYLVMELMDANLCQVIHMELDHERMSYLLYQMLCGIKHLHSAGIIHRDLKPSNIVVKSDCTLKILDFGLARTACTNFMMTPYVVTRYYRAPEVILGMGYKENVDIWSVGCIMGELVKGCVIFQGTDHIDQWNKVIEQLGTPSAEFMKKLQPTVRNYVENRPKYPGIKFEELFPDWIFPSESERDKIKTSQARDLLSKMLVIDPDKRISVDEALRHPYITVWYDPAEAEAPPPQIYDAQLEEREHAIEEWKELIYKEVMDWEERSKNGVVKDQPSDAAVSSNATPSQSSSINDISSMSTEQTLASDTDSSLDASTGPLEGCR
Excerpt: as §1

IRAK1 = IRAK1 (Homo sapiens, UniProt P51617)
IRAK1, sequence (P51617 whole entry): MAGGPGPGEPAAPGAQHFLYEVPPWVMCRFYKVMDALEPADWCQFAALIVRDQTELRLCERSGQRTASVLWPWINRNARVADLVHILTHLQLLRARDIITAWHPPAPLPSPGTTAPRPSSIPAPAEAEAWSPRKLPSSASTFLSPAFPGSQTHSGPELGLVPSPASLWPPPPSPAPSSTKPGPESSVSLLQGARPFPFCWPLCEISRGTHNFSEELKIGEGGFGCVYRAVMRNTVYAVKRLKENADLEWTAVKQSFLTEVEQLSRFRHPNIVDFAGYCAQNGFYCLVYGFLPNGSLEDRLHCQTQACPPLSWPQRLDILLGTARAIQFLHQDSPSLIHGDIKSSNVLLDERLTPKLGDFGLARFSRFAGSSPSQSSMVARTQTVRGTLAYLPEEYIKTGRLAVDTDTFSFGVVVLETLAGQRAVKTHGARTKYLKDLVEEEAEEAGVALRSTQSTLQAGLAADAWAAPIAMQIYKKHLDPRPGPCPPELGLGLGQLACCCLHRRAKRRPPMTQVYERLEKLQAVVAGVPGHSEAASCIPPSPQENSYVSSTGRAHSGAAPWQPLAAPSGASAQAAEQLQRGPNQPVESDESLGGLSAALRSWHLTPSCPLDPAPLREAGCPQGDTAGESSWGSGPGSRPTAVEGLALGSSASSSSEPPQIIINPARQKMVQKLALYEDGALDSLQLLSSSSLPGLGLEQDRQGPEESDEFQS
Excerpt: as §1

BRSK1 = target: T2, BRSK1 (Homo sapiens, UniProt Q8TDC3)
T2 sequence (Q8TDC3 1-778): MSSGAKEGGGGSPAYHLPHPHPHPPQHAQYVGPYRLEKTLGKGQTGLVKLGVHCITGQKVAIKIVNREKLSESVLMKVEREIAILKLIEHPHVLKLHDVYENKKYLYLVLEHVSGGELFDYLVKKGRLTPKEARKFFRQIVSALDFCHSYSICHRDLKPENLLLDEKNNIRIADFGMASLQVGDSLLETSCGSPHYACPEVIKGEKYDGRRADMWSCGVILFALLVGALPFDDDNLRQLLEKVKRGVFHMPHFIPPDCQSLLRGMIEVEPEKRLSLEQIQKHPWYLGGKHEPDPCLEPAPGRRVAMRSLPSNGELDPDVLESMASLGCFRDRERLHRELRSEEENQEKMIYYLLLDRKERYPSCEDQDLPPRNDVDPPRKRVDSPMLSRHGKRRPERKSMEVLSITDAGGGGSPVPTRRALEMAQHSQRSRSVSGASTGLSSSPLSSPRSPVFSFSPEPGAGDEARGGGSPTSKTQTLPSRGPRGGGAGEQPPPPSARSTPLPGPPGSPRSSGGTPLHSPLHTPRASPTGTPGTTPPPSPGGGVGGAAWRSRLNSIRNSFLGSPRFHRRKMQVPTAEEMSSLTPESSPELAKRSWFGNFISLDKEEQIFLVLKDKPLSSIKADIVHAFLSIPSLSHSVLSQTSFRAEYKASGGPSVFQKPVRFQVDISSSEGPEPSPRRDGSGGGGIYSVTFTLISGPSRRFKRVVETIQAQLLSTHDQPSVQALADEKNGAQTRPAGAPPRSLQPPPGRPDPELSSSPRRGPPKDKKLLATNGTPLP
Excerpt: as §1

TAK1 = target: T3, TAK1 (Homo sapiens, UniProt O43318)
T3 sequence (O43318 1-303 limits assumed): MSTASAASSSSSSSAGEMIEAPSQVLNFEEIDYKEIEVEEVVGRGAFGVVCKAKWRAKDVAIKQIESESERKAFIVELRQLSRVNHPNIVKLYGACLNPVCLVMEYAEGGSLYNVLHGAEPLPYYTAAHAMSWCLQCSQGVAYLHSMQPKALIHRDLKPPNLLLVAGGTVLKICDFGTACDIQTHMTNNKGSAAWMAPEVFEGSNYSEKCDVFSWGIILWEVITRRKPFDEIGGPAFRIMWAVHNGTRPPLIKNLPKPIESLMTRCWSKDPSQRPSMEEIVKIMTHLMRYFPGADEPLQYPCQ
Excerpt: as §1

MNK1 = MNK1 (Homo sapiens, UniProt Q9BUB5)
MNK1, sequence (Q9BUB5 whole entry): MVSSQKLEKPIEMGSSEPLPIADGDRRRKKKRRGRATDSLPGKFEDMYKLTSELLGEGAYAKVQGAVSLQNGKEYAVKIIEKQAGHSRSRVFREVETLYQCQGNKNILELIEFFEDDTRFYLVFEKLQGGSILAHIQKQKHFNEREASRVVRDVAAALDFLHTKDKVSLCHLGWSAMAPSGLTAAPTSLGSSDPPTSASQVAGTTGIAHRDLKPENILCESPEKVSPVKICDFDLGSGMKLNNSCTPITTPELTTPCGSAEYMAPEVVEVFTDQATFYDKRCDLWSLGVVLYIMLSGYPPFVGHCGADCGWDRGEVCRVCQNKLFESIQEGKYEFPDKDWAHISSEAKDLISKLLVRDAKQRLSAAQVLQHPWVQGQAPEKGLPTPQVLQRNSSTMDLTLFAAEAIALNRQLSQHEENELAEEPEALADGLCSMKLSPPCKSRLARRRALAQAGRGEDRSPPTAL
Excerpt: as §1

p38 gamma MAPK = target: T4, p38 gamma MAPK (Homo sapiens, UniProt P53778)
T4 sequence (P53778 1-367): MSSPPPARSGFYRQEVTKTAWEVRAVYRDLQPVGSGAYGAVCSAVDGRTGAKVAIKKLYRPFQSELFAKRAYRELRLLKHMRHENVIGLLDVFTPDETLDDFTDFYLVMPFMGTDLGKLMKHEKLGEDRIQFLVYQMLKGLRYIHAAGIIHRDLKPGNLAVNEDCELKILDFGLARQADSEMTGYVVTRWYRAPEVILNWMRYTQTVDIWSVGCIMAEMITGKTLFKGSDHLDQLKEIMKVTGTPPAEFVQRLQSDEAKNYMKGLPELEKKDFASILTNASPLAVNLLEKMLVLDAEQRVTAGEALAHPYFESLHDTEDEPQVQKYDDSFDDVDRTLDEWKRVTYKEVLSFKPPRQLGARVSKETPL
Excerpt: as §1

Work on Cc1ccc(F)c(S(=O)(=O)Nc2ccc(-c3nc(OC[C@H]4CN(CCCCCCOCCOCCOCC(=O)N[C@H](C(=O)N5C[C@H](O)C[C@H]5C(=O)NCc5ccc(-c6scnc6C)cc5)C(C)(C)C)CCO4)c4cn[nH]c4n3)cc2)c1 [SGK3-PROTAC1] yielded a remaining activity at 1 µM (EPH-B2; 1 µM) of 94%, a remaining activity at 1 µM (HER4; 1 µM) of 92% and a remaining activity at 1 µM (JNK2; 1 µM) of 117%. For the same compound, the remaining activity at 1 µM (IRAK1; 1 µM) was 98%, the remaining activity at 1 µM (BRSK1; 1 µM) was 108% and the remaining activity at 1 µM (TAK1; 1 µM) was 108%. It also gave a remaining activity at 1 µM (MNK1; 1 µM) of 108% and a remaining activity at 1 µM (p38 gamma MAPK; 1 µM) of 107%.
COc1ccc(Cl)c(S(=O)(=O)Nc2ccc(-c3nc(OC[C@H]4CNCCO4)c4c(C)n[nH]c4n3)cc2)c1 [290-R, reference compound] was tested, and the remaining activity at 1 µM (EPH-B2) was 120%, the remaining activity at 1 µM (HER4) was 102% and the remaining activity at 1 µM (JNK2) was 105%. The remaining activity at 1 µM (IRAK1) was 93%, the remaining activity at 1 µM (BRSK1) was 95% and the remaining activity at 1 µM (TAK1) was 101%. The remaining activity at 1 µM (MNK1) was 87% and the remaining activity at 1 µM (p38 gamma MAPK) was 112%.
Cc1ccc(F)c(S(=O)(=O)Nc2ccc(-c3nc(OC[C@H]4CN(CCCCCCOCCOCCOCC(=O)N[C@H](C(=O)N5C[C@@H](O)C[C@H]5C(=O)NCc5ccc(-c6scnc6C)cc5)C(C)(C)C)CCO4)c4cn[nH]c4n3)cc2)c1 [cisSGK3-PROTAC1] gave a remaining activity at 1 µM (EPH-B2; 1 µM) of 97%, a remaining activity at 1 µM (HER4; 1 µM) of 103% and a remaining activity at 1 µM (JNK2; 1 µM) of 109%. It also gave a remaining activity at 1 µM (IRAK1; 1 µM) of 105%, a remaining activity at 1 µM (BRSK1; 1 µM) of 106% and a remaining activity at 1 µM (TAK1; 1 µM) of 107%. For the same compound, the remaining activity at 1 µM (MNK1; 1 µM) was 103% and the remaining activity at 1 µM (p38 gamma MAPK; 1 µM) was 127%.
With Cc1ccc(F)c(S(=O)(=O)Nc2ccc(-c3nc(OC[C@H]4CNCCO4)c4cn[nH]c4n3)cc2)c1 [308-R, reference compound] the remaining activity at 1 µM (EPH-B2) was 56%, the remaining activity at 1 µM (HER4) was 67% and the remaining activity at 1 µM (JNK2) was 113%. It also gave a remaining activity at 1 µM (IRAK1) of 88%, a remaining activity at 1 µM (BRSK1) of 106% and a remaining activity at 1 µM (TAK1) of 74%. For the same compound, the remaining activity at 1 µM (MNK1) was 77% and the remaining activity at 1 µM (p38 gamma MAPK) was 111%.
